According to US20100267697A1, “ION CHANNEL MODULATORS” (Wyeth, priority 2006, published 2010):
Like-named read-outs stand apart in the source and are kept apart here.

Tests used:
Cav2.2 [1] = biological target: T1, Cav2.2 (Homo sapiens, UniProt Q00975); assay: HEK assay (whole-cell patch clamp, transiently transfected HEK-293T/17 cells, pulses P1 and P5); assay type: cell-based; settings: holding potential −100 mV
T1 construct: expressed in transfected cells; host or cells: HEK-293T/17 (transient, FuGENE 6)
T1 sequence (Q00975 whole entry): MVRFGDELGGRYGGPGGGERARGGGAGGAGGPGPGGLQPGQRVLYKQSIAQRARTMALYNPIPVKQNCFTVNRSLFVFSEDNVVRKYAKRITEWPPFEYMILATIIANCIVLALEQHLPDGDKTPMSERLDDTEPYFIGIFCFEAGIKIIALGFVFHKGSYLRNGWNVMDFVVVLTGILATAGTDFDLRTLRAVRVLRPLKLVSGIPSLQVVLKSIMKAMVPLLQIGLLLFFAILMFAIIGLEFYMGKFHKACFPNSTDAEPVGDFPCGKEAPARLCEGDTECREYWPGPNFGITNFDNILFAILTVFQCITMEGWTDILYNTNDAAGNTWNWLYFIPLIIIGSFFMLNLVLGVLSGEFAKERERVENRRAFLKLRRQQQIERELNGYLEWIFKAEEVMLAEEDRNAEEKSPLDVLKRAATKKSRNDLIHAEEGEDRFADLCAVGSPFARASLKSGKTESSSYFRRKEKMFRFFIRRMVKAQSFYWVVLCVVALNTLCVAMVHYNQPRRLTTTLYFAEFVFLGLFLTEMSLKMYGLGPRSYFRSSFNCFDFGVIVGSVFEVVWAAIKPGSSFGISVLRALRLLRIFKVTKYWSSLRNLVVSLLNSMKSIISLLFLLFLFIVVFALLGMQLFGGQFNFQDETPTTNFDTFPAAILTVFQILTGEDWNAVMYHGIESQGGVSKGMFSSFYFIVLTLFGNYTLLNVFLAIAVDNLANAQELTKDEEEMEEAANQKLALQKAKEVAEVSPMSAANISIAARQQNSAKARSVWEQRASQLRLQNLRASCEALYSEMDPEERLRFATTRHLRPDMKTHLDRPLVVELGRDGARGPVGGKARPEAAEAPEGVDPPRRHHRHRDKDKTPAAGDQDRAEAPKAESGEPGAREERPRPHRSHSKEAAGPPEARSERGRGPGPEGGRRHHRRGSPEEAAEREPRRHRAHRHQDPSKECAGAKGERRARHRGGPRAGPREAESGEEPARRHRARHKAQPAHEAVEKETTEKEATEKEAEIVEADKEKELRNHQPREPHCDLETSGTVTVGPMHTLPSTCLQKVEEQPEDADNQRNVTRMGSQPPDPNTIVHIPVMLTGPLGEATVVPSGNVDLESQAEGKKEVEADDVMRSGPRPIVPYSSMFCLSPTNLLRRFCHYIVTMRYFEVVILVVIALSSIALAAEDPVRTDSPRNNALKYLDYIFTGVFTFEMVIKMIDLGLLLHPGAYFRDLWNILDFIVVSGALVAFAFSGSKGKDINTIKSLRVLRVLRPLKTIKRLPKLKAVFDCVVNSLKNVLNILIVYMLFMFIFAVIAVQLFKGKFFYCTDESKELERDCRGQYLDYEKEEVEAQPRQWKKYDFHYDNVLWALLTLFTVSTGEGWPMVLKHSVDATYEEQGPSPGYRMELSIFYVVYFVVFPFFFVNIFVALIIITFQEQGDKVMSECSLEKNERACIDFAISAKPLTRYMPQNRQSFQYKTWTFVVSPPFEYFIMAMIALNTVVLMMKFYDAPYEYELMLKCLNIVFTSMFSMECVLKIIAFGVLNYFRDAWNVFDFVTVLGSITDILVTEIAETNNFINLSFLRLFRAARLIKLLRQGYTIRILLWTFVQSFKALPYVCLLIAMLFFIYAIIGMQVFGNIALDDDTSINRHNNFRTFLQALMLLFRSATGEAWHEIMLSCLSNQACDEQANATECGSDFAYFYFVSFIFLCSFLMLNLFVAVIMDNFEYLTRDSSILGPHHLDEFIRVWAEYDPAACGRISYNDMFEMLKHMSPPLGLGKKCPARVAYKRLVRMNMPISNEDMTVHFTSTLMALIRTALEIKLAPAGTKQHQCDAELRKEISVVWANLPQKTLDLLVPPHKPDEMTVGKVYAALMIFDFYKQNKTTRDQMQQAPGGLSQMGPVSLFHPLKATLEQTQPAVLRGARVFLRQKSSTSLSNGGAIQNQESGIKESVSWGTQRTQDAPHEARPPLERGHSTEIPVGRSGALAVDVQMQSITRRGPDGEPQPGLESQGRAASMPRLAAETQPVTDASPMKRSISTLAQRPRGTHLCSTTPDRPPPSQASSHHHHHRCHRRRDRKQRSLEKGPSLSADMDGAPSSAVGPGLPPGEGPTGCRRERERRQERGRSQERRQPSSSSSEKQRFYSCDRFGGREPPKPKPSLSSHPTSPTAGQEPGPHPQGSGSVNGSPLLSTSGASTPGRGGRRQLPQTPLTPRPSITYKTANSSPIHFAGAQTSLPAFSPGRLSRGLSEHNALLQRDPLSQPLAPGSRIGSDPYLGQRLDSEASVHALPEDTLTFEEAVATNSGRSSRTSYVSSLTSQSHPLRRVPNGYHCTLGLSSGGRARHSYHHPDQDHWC
T1 sequence (P54284 whole entry partner): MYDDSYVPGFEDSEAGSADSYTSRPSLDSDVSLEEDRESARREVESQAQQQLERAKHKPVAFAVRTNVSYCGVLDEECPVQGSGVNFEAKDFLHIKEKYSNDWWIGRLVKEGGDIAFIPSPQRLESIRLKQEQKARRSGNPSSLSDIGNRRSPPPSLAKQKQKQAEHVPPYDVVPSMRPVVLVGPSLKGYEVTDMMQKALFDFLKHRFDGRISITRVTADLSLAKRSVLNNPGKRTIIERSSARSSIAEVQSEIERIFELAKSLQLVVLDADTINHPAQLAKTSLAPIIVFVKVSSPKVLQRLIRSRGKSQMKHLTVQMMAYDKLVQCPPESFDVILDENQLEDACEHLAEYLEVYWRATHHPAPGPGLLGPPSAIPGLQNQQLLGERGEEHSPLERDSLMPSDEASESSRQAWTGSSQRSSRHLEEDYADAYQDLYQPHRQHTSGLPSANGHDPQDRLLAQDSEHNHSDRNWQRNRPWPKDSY
T1 sequence (P54289 25-946 partner limits assumed): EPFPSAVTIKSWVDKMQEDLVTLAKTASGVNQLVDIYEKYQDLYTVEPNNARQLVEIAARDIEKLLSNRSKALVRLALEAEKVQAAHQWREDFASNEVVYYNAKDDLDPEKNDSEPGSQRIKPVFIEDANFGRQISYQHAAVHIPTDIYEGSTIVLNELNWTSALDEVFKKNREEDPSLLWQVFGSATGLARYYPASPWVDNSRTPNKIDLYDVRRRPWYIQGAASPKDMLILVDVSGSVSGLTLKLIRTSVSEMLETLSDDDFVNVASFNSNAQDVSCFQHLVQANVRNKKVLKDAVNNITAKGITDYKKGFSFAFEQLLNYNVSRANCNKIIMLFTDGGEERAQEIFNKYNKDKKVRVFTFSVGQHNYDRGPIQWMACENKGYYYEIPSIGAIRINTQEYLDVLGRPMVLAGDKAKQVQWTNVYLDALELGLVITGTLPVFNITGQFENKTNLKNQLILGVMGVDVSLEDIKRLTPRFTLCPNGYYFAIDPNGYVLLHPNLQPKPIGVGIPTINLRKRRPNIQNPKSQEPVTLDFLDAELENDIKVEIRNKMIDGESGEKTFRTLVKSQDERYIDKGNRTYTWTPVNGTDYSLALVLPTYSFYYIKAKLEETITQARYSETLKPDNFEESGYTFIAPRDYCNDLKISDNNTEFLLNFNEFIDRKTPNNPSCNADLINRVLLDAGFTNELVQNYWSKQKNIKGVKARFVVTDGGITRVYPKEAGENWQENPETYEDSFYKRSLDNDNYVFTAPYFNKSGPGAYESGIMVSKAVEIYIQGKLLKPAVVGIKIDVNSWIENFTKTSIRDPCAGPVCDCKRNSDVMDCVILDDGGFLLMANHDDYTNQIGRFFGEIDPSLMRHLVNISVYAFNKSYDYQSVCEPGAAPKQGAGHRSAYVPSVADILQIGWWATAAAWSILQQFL
T1 sequence (P54289 947-1103 partner limits assumed): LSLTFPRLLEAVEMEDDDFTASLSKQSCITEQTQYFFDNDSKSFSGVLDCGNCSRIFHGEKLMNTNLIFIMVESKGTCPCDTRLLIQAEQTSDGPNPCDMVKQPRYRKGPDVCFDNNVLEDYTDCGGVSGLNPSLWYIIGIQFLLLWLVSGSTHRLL
Method in brief: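 Whole-cell voltage clamp of HEK-293T/17 cells transiently transfected via FuGENE 6, then grown 24 h in 1% serum before recording. From −100 mV holding, trains of five 20–30 ms steps to about +10 mV at 5 Hz, repeated every 30 s; steady-state IC50s taken at first (P1) and fifth (P5) pulses to gauge use-dependent block.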

Cav2.2 [2] = biological target: Cav2.2 (UniProt Q02294); assay: Oocyte assay (Xenopus oocyte heterologous expression, current at fifth pulse P5); assay type: cell-based; settings: Xenopus oocytes; fifth pulse (P5) of 5 Hz train, holding potential −100 mV
Description: The assay was performed on various calcium channels (e.g., Cav2.2 subfamily) whereby the modulation of the calcium channel was measured for each tested compound.

[3] = fifth pulse (P5) of 5 Hz train, read-out: HEK Cav2.2 P5 IC50
[4] = first pulse (P1) of 5 Hz train, read-out: HEK Cav2.2 P1 IC50

Row | IC50 (Cav2.2 [1]; [3]) [µM] | IC50 (Cav2.2 [1]; [4]) [µM] | IC50 (Cav2.2 [2]) [µM] | SMILES
1 | 5.7 | 27.8 | 18.3 | CN1CCCN(c2ccc(CN(C(=O)C(C)(C)C)c3ccc(F)cc3)cn2)CC1 [Compound 22, N-(4-Fluorophenyl)-2,2-dimethyl-N-[6-(4-methyl-[1,4]diazepan-1-yl)-pyridin-3-ylmethyl]-propionamide]
2 | 0.6 | 2.9 | 3.8 | CCC(C)(C)C(=O)N(Cc1ccc(N(C)CCc2ccccn2)nc1)c1ccc(F)cc1 [Compound 24, N-(4-Fluorophenyl)-2,2-dimethyl-N-{6-[methyl-(2-pyridin-2-yl-ethyl)-amino]-pyridin-3-ylmethyl}-butyramide]
3 | 0.3 | 2.4 | 4.2 | CC(C)(C)C(=O)N(Cc1ccc(N2CCN(c3ccccn3)CC2)nc1)c1ccc(F)cc1 [Compound 25, N-(4-Fluorophenyl)-2,2-dimethyl-N-[6-(4-pyridin-2-yl-piperazin-1-yl)-pyridin-3-ylmethyl]-propionamide]
4 | 0.4 | 1.7 | 12.2 | CCC(C)(C)C(=O)N(Cc1ccc(N2CCN(c3ccccn3)CC2)nc1)c1ccc(F)cc1 [Compound 26, N-(4-Fluorophenyl)-2,2-dimethyl-N-[6-(4-pyridin-2-yl-piperazin-1-yl)-pyridin-3-ylmethyl]-butyamide]
5 | 1.1 | 4.6 | 5.2 | CN(CCc1cccnc1)c1ccc(CN(C(=O)C(C)(C)C)c2ccc(F)cc2)cn1 [Compound 27, N-(4-Fluorophenyl)-2,2-dimethyl-N-{6-[methyl-(2-pyridin-3-yl-ethyl)-amino]-pyridin-3-ylmethyl}-propionamide]
6 | 1 | 5.2 | 8.7 | CN(CCOc1ccccn1)c1ccc(CN(C(=O)C(C)(C)C)c2ccc(F)cc2)cn1 [Compound 29, N-(4-Fluorophenyl)-2,2-dimethyl-N-(6-{methyl-[2-(pyridin-2-yloxy)-ethyl]-amino}-pyridin-3-ylmethyl)-propanamide]
7 | 2.7 | 18.9 | 23.6 | CC(C)c1ccccc1N(Cc1ccc(N2CCN(C)CC2)nc1)C(=O)C(C)(C)C [Compound 30, N-(2-Isopropyl-phenyl)-2,2-dimethyl-N-[6-(4-methyl-piperazin-1-yl)-pyridin-3-ylmethyl]-propionamide]
8 | 1.3 | 5.5 | 6.6 | CCN(CC)c1ccc(CN(C(=O)C(C)(C)CC)c2ccc(F)cc2)cn1 [Compound 31, N-(6-Diethylamino-pyridin-3-ylmethyl)-N-(4-fluorophenyl)-2,2-dimethyl-butyramide]
9 | 2.6 | 24.5 | 21.2 | Cc1cc(C)cc(N(Cc2ccc(N3CCN(C)CC3)nc2)C(=O)C(C)(C)C)c1 [Compound 32, N-(3,5-dimethylphenyl)-2,2-dimethyl-N-[6-(4-methyl-piperazin-1-yl)-pyridin-3-ylmethyl]-propionamide]
10 | 11.5 | 37.6 | 22.9 | CC(C)(C)C(=O)N(Cc1ccc(N2CCC(N3CCOCC3)CC2)nc1)c1ccc(F)cc1 [Compound 33, N-(4-Fluorophenyl)-2,2-dimethyl-N-(4-morpholin-4-yl-3,4,5,6-tetrahydro-2H-[1,2′]bipyridinyl-5′-ylmethyl)-propionamide]
11 | 2.4 | 5.5 | 19.6 | CC(C)(C)C(=O)N(Cc1ccc(N2CCC(N3CCCC3)CC2)nc1)c1ccc(F)cc1 [Compound 34, N-(4-Fluorophenyl)-2,2-dimethyl-N-(4-pyrrolidin-1-yl-3,4,5,6-tetrahydro-2H-[1,2′]bipyridinyl-5′-ylmethyl)-propionamide]
12 | 1.4 | 4.4 | 13.2 | CCC(C)(C)C(=O)N(Cc1ccc(N2CCN(C)CC2)nc1)c1ccccc1C(C)C [Compound 35, N-(2-Isopropyl-phenyl)-2,2-dimethyl-N-[6-(4-methyl-piperazin-1-yl)-pyridin-3-ylmethyl]-butyramide]
13 | 2.4 | 6 | 18.3 | CCN(CC)c1nc(CN(C(=O)C(C)(C)C)c2ccc(F)cc2)cs1 [Compound 64, N-(2-Diethylamino-thiazol-4-ylmethyl)-N-(4-fluorophenyl)-2,2-dimethyl-propionamide]
14 | 1.9 | 12.1 | 9.8 | CC(C)(C)C(=O)N(Cc1ccc(N2CCCCC2)nc1)c1ccc(F)cc1 [Compound 70, N-(4-Fluorophenyl)-2,2-dimethyl-N-(3,4,5,6-tetrahydro-2H-[1,2′]bipyridinyl-5′-ylmethyl)-propionamide]
15 | 0.6 | 2 | 1.7 | CN(C)c1ccc(N(Cc2csc(N(C)c3ccc(F)cc3)n2)C(=O)C(C)(C)C)cc1 [Compound 81, N-(4-Dimethylamino-phenyl)-N-{2-[(4-fluorophenyl)-methyl-amino]-thiazol-4-ylmethyl}-2,2-dimethyl-propionamide]
16 | 1 | 3.3 | 7.1 | CCN(c1nc(CN(C(=O)C(C)(C)C)c2ccc(F)cc2)cs1)C1CC1 [Compound 83, N-[2-(Cyclopropyl(ethyl)amino)-thiazol-4-ylmethyl]-N-(4-fluorophenyl)-2,2-dimethyl-propionamide]
17 | 1.2 | 4.3 | 15.6 | CCN(CC)c1ncc(CN(C(=O)C(C)(C)C)c2ccc(F)cc2)cn1 [Compound 84, N-(2-Diethylamino-pyrimidin-5-ylmethyl)-N-(4-fluorophenyl)-2,2-dimethyl-propionamide]
18 | 1.9 | 7.4 | 16.2 | CN(C)c1ccc(N(Cc2cnc(N3CCCCC3)nc2)C(=O)C(C)(C)C)cc1 [Compound 85, N-(4-Dimethylamino-phenyl)-2,2-dimethyl-N-(2-piperidin-1-yl-pyrimidin-5-ylmethyl)-propionamide]
19 | 0.4 | 0.8 | 22.8 | CN(c1ccccn1)c1nc(CN(C(=O)C(C)(C)C)c2ccc(F)cc2)cs1 [Compound 93, N-(4-Fluorophenyl)-2,2-dimethyl-N-[2-(methyl-pyridin-2-yl-amino)-thiazol-4-ylmethyl]-propionamide]
20 | 2.5 | 14.1 | 22 | CN1CCN(c2ccc(CN(C(=O)C3CCCCC3)c3ccc(F)cc3)cn2)CC1 [Compound 104, Cyclohexanecarboxylic acid (4-fluorophenyl)-[6-(4-methyl-piperazin-1-yl)-pyridin-3-ylmethyl]-amide]
21 | 2.1 | 18.6 | 23.2 | O=C(C1CCOC1)N(Cc1ccc(N2CCN(c3ccccn3)CC2)nc1)c1ccc(F)cc1 (stereo not drawn) [Compound 111, Tetrahydro-furan-3-carboxylic acid (4-fluorophenyl)-[6-(4-pyridin-2-yl-piperazin-1-yl)-pyridin-3-ylmethyl]-amide]
